The target of data set [1] is T1, EDNRA (Homo sapiens, UniProt P25101).
T1 sequence (P25101 21-427): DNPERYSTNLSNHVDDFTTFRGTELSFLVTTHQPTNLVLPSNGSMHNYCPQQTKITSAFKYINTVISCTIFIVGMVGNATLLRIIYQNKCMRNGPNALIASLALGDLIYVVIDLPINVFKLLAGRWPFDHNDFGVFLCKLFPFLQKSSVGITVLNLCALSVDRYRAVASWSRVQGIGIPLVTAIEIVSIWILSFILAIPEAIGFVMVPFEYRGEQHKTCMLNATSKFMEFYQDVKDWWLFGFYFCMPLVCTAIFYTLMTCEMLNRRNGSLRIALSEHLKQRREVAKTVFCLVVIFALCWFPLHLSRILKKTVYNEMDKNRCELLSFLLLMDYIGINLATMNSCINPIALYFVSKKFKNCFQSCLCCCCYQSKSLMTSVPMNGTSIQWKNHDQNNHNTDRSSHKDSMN
Nature of the data set: Calcium Flux EDNRA Antagonist. The following applies: for IC50: read-out: RC50, result type IC50; for Emax: read-out: Max response. In kind it is cell-based. Here is the method:
(§1) (≤0.2% DMSO concentration). Assays were performed in 1× dye loading buffer consisting of 1× Dye (DiscoverX, Calcium No Wash^PLUS kit, Catalog No. 90-0091), 1× Additive A and 2.5 mM Probenecid in HBSS/20 mM HEPES. Probenecid was prepared fresh. Prior to testing, media was aspirated from cells and replaced with 25 μL dye loading buffer. Cells were incubated for 45 min at 37° C. and then 20 min at RT. For agonist determination, 25 μL of 2× compound in HBSS/20 mM HEPES was added using a FLIPR Tetra (MDS). […] 25 μL of 2× sample was added and cells were incubated for 30 min at RT in the dark to equilibrate plate temperature. After incubation, antagonist determination was initiated by addition of 25 μL of 1× compound with 3×EC80 agonist using FLIPR. For both agonist and antagonist formats, activity was measure on a FLIPR Tetra (MDS). Calcium mobilization was monitored for 2 min with a 5 sec baseline read.
(§2) FLIPR read—Area under the curve, was calculated for the entire 2 min read.
Background: Calcium flux is commonly read through the fluorescence of an indicator in the cells.

Data set [2] addresses T2, ADRA1A (Homo sapiens, UniProt P35348).
T2 sequence (P35348 1-466): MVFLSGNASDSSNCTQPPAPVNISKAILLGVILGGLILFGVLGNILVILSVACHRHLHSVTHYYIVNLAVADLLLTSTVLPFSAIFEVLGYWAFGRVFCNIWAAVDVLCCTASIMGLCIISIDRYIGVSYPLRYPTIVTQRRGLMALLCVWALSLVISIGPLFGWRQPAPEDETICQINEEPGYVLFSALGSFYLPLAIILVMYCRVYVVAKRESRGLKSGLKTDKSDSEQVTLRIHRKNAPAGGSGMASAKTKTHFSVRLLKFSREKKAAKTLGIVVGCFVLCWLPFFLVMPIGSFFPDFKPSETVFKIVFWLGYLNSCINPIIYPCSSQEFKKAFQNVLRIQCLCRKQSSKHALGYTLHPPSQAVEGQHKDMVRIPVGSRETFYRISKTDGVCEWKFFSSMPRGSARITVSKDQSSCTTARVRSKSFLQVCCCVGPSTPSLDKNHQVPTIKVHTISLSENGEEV
Nature of the data set: Calcium Flux ADRA1A Agonist. The following applies: for Emax: read-out: Max response.
Protocol: (§3) In vitro pharmacological profiling of compounds was done against 78 functional assays for 47 common off-targets (30) by Eurofins DiscoverX Corporation (Fremont, CA, USA) using their SAFETYscan E/IC50 ELECT service (Cat Ref 87-1003DR, Safety47 Panel Dose Response). […] Compounds were tested in a range of 10 concentrations, following a 3-fold serial dilution, starting from 10 μM. The assays were performed utilizing the PathHunter enzyme fragment complementation (EFC) technology, FLIPR®-based cellular screening assays, and KINOMEscan kinase binding assays.
Prior to testing, cells (10,000 cells/well) were expanded from freezer stocks and seeded into a total volume of 50 μL into black walled, clear-bottom, Poly-D-lysine coated 384-well microplates and incubated at 37° C. […] Assays were performed in 1× dye loading buffer consisting of 1× Dye (DiscoverX, Calcium No Wash^PLUS kit, Catalog No. 90-0091), 1× Additive A and 2.5 mM Probenecid in HBSS/20 mM HEPES. Probenecid was prepared fresh. Prior to testing, media was aspirated from cells and replaced with 25 μL dye loading buffer. Cells were incubated for 45 min at 37° C. and then 20 min at RT. For agonist determination, 25 μL of 2× compound in HBSS/20 mM HEPES was added using a FLIPR Tetra (MDS). For antagonist determination, cells were pre-incubated with sample followed by agonist challenge at the EC80 concentration. 25 μL of 2× sample was added and cells were incubated for 30 min at RT in the dark to equilibrate plate temperature. After incubation, antagonist determination was initiated by addition of 25 μL of 1× compound with 3×EC80 agonist using FLIPR. For both agonist and antagonist formats, activity was measure on a FLIPR Tetra (MDS). Calcium mobilization was monitored for 2 min with a 5 sec baseline read.
FLIPR read—Area under the curve, was calculated for the entire 2 min read. Compound activity was analysed using CBIS data analysis suite (ChemInnovation, CA).

Data set [3] addresses CAV1.2 (Homo sapiens, UniProt Q13936). Nature of the data set: Ion Channel CAV1.2 Blocker. In kind it is cell-based.
Data set [4] addresses OPRM1 (Homo sapiens, UniProt P35372). Nature of the data set: cAMP OPRM1 Antagonist. The following applies: for Emax: OPRM1, read-out: Max response.
Protocol: as §3
cAMP Hunter cell lines were expanded from freezer stocks. Prior to testing, cells were seeded in a total volume of 20 μL into white walled 384-well microplates and incubated at 37° C. cAMP modulation was determined using the DiscoverX HitHunter cAMP XS+ assay. For Gs agonist determination, cells were incubated with sample to induce response. For Gi agonist determination, cells were incubated with sample in the presence of EC80 forskolin to induce response. For both conditions, media was aspirated from cells and replaced with 15 μL 2:1 HBSS/10 mM HEPES:cAMP XS+ Ab reagent. Intermediate dilution of sample stocks was performed to generate 4× sample in assay buffer (containing 4×EC80 forskolin in the case of antagonist determination). 5 μL of 4× sample was added to cells and incubated at 37° C. or room temperature (RT) for 30 or 60 min. Final assay vehicle concentration was 1%. For antagonist determination, cells were pre-incubated with sample followed by agonist challenge at the EC80 concentration. Media was aspirated from cells and replaced with 10 μL 1:1 HBSS/HEPES:cAMP XS+ Ab reagent. 5 μL of 4× compound was added to the cells and incubated at 37° C. or RT for 30 min. 5 μL of 4×EC80 agonist was added to the cells and incubated at 37° C. or RT for 30 or 60 min. For Gi coupled GPCRs, EC80 forskolin was included. […] Microplates were read following signal generation with a PerkinElmer Envision™ instrument for chemiluminescent signal detection. Compound activity was analyzed using CBIS data analysis suite (ChemInnovation, CA). For Gs agonist mode assays, percentage activity was calculated using the following equation:
Data set [5] addresses HRH2 (Homo sapiens, UniProt P25021). Nature of the data set: cAMP HRH2 Antagonist. As to conditions: for Emax: read-out: Max response. In kind it is cell-based. As for the experimental part:
cAMP Hunter cell lines were expanded from freezer stocks. […] For Gi agonist determination, cells were incubated with sample in the presence of EC80 forskolin to induce response. For both conditions, media was aspirated from cells and replaced with 15 μL 2:1 HBSS/10 mM HEPES:cAMP XS+ Ab reagent. […] 5 μL of 4× sample was added to cells and incubated at 37° C. or room temperature (RT) for 30 or 60 min. Final assay vehicle concentration was 1%. […] Media was aspirated from cells and replaced with 10 μL 1:1 HBSS/HEPES:cAMP XS+ Ab reagent. […] For Gi coupled GPCRs, EC80 forskolin was included. […] Compound activity was analyzed using CBIS data analysis suite (ChemInnovation, CA).

The target of data set [6] is ADORA2A (Homo sapiens, UniProt P29274). Nature of the data set: Calcium Flux ADORA2A Antagonist. As to conditions: for IC50: read-out: RC50, result type IC50; for Emax: read-out: Max response. In kind it is cell-based. As for the experimental part: as §1, §2
The nature of data set [7]: Caco-2 permeability. It is filed as in vitro ADME. The following applies: human; for recovery at 10 μM: Caco-2, Caco-2, 10 μM; for Papp A→B at 10 μM / Papp B→A at 10 μM: Caco-2, pH 6.5 and 7.4, 10 μM; for Papp A→B at 10 μM: apical to basolateral; for Papp B→A at 10 μM: basolateral to apical. The source says:
In vitro ADME profiling of compounds was done by Eurofins Panlabs Inc (St Charles, MO, USA) using their ADME-Tox service (Cat Ref P375, Tier 1 ADME Panel). […] (28). The atom-based log P calculation method, called OsirisP, uses as an increment system and adds contributions of every atom based on its atom type. The prediction engine distinguishes a total of 368 atom types and was optimized using a training set of more than 5000 molecules with experimentally determined log P values. The free prediction engine has proven to outperform many alternative calculation methods (29).
Caco-2 cells were derived from a human colorectal adenocarcinoma. For permeability assays, cells were seeded at 1×10^5 cells/cm2 in 96 Multiscreen™ plates (Millipore) and used at days 21-25 post-seeding. Cells were used for 15 consecutive passages in culture. HBSS with 10 mM MES at pH 6.5 (apical side) or HBSS with HEPES at pH 7.4 (basolateral side) were used as the transport buffers. Test compounds were added at 10 μM concentration (final solvent concentration of 1% DMSO) to the apical side to determine apical to basolateral (A-B) transport and to the basal side to determine basolateral to apical (B-A) transport. For inhibition studies, 100 μM verapamil was included on both the A and B sides. Aliquots were taken from the donor side (A-B transport) at time zero and the end point, and from the receiver side (B-A transport) at the end point. Propranolol, labetalol, ranitidine, and colchicine (P-glycoprotein substrate) were included in each assay. Samples were analysed by HPLC-MS/MS for quantification. Papp (cm/sec) was calculated from the following equation: […]
Where VR is the volume of the receiver, C is the concentration of the test compound (either at the donor or receiver side and at mid-point or end point of the incubation), Δt is the incubation time (seconds) and A is the surface area of the cell monolayer (0.11 cm^2).
In general terms: Caco-2 cells form a polarised layer with tight junctions and transporters.

Where [8] appears, read: Calcium Flux ADORA2A Antagonist.
Where [9] appears, read: read-out: percentual recovery, apical to basolateral direction.
Where [10] appears, read: read-out: percentual recovery, basolateral to apical direction.

Like-named read-outs stand apart in the source and are kept apart here.

OPRM1, sequence (P35372 whole entry): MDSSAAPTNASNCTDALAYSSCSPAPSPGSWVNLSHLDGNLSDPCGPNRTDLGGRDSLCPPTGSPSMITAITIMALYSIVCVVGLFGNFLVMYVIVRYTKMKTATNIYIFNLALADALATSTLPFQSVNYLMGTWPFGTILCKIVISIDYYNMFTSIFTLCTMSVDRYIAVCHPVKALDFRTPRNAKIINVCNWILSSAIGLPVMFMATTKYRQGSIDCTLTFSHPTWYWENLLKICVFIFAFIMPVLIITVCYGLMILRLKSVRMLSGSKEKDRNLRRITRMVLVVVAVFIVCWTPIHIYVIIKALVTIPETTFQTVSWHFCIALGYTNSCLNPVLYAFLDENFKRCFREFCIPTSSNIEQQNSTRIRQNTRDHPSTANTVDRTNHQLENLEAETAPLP
ADORA2A, sequence (P29274 whole entry): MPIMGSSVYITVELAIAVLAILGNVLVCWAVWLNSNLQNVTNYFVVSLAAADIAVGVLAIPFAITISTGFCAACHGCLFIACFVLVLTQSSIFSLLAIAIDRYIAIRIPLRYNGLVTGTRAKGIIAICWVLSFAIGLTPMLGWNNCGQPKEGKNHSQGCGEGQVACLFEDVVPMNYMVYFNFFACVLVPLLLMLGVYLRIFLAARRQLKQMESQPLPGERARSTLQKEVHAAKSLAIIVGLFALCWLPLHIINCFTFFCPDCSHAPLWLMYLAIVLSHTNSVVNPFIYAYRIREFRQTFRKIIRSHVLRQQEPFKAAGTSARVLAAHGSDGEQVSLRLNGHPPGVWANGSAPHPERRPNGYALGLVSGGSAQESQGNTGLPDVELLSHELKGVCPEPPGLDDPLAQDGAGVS
CAV1.2, sequence (Q13936 whole entry): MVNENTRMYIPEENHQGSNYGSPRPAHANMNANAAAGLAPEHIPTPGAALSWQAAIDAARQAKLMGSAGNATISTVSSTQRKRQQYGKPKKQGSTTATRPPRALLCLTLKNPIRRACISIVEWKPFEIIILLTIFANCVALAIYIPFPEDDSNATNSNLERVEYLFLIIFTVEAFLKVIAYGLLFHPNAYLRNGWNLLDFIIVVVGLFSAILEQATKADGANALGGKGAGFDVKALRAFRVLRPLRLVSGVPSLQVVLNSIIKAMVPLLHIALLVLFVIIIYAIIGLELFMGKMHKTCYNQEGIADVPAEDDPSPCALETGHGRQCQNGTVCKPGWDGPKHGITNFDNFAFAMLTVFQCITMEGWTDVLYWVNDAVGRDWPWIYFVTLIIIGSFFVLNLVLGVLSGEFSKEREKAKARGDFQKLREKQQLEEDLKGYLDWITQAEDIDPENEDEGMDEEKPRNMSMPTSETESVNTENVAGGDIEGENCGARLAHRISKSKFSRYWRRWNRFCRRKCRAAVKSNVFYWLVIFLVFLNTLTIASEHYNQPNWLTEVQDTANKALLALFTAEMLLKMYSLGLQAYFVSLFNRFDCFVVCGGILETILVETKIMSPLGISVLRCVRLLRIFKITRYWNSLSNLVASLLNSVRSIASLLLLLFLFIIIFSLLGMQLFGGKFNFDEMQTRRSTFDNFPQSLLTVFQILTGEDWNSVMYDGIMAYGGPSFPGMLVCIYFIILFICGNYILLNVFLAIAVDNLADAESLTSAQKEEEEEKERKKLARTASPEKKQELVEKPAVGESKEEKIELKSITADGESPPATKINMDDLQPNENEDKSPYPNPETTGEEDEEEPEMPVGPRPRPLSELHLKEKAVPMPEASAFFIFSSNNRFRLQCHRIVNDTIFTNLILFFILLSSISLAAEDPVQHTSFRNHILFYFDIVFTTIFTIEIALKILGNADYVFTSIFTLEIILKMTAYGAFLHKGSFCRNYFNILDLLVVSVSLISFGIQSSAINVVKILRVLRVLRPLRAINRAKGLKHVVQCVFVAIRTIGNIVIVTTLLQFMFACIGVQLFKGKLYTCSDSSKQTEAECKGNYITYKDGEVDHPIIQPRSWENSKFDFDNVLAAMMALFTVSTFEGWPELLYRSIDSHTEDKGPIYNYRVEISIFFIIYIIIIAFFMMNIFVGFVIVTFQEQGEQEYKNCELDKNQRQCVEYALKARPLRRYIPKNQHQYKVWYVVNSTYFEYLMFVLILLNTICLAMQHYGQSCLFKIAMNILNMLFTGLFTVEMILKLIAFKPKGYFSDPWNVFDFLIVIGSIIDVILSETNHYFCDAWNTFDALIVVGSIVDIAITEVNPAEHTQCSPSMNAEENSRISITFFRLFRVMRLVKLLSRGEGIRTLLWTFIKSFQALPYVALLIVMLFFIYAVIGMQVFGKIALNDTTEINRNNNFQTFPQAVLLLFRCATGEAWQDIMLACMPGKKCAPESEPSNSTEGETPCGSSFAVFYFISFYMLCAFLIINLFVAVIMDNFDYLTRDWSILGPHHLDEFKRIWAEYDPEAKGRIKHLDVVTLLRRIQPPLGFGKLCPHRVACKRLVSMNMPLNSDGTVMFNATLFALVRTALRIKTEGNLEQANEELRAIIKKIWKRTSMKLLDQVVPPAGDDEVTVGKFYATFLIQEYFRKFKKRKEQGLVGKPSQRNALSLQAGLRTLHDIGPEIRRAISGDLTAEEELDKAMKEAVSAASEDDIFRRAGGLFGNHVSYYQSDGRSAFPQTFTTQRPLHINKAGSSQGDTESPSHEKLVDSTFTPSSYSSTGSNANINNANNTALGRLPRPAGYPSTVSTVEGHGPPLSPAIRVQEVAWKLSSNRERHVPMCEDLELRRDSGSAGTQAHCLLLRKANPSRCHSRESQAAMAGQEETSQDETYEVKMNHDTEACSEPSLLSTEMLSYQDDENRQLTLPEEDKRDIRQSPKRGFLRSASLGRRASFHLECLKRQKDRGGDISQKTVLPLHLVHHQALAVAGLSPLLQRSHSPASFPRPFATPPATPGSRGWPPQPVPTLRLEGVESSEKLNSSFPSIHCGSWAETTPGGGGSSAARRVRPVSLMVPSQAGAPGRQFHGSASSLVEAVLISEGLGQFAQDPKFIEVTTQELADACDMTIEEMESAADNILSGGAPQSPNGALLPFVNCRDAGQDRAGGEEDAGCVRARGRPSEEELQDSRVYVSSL
CAV1.2, sequence (Q08289 whole entry partner): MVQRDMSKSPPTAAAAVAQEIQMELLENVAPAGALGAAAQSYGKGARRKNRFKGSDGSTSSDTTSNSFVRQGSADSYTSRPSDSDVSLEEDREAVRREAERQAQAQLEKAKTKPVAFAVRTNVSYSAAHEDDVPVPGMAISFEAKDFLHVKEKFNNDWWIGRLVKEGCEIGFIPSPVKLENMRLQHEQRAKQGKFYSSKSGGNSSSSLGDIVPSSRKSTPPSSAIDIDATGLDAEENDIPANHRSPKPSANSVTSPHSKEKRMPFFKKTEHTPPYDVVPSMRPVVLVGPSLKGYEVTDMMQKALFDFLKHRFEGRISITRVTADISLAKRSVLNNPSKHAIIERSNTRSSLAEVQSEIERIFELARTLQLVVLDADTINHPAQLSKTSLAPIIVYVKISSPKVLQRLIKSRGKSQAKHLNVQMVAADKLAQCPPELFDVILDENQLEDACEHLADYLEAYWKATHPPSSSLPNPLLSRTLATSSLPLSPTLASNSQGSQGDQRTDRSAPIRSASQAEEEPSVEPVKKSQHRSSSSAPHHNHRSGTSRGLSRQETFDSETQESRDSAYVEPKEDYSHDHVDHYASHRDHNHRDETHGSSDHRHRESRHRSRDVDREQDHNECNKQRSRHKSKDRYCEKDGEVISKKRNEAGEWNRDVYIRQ
CAV1.2, sequence (P54289 25-956 partner limits assumed): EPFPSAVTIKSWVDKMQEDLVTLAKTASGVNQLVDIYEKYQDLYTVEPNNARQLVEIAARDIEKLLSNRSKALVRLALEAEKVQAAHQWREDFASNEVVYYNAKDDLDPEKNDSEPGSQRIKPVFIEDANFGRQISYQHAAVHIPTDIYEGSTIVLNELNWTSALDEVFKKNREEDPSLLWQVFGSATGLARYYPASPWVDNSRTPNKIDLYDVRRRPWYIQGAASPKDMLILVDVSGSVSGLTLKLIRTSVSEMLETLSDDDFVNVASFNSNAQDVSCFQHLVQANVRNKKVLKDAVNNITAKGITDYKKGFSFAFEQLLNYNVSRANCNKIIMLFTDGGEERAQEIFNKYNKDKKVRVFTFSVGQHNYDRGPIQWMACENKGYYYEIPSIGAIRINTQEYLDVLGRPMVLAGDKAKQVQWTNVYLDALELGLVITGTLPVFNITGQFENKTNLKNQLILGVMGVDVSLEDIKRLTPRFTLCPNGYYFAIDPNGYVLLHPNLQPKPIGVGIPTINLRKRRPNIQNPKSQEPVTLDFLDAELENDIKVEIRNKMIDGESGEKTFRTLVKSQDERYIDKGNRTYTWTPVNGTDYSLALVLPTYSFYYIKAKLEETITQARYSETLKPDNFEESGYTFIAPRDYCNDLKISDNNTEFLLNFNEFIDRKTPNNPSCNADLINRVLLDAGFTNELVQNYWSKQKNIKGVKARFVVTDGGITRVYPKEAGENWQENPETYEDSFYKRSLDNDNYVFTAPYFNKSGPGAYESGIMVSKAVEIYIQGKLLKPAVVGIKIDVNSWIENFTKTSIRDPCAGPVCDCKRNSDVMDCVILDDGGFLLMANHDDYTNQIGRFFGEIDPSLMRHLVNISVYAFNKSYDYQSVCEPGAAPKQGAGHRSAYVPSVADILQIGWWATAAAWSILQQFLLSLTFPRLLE
CAV1.2, sequence (P54289 957-1103 partner limits assumed): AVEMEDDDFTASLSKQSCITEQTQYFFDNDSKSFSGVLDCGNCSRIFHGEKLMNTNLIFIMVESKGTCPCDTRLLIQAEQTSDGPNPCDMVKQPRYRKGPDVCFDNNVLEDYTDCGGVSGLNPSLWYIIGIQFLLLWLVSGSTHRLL

Consider `CC(C)(C)c1ccc(C#CC(O)c2ccccc2)cc1` (racemic) [Compound 3.3, rac-3-(4-(tert-butyl)phenyl)-1-phenylprop-2-yn-1-ol], for which the IC50 in data set [1] (Calcium Flux EDNRA Antagonist), in data set [3], in data set [4], in data set [5] and in data set [6] (setting [8]) was > 10 µM throughout. For the same molecule, the Emax in data set [1] amounted to 0%; in data set [2], 0.6%; in data set [4] it was 0.8%; in data set [5], 2.7%; in data set [6], 0%. Also, the EC50 (commonly the concentration needed to bring the measured effect to its halfway point) in data set [2] was > 10 µM. In addition, the Emax at 30 min in data set [3] (Ion Channel CAV1.2 Blocker, read-out: Max response) was 7.2%. The recovery at 10 μM in data set [7] (setting [9]) amounted to 6%; in data set [7] (setting [10]), 15%. Further, in data set [7], the Papp A→B (commonly how fast a substance crosses the layer from the apical side) at 10 μM was determined as 0.4 ×10⁻⁶ cm/s. In addition, the Papp B→A (in general, how fast a substance crosses the layer from the basolateral side) at 10 μM in data set [7] was 0.1 ×10⁻⁶ cm/s.
With `Clc1cccc(C#Cc2n[nH]c3ncccc23)c1` [Compound 10.1, 3-((3-chlorophenyl)ethynyl)-1H-pyrazolo[3,4-b]pyridine], the Emax in data set [1] (Calcium Flux EDNRA Antagonist) came out at 0%; in data set [2] it was 0.6%; in data set [4] it was 0%; in data set [5] (cAMP HRH2 Antagonist), 13.9%; in data set [6] (setting [8]), 0%. Further, the IC50 – broadly, the point on the concentration scale where inhibition reaches its midpoint – in data set [1] (Calcium Flux EDNRA Antagonist) was > 10 µM; in data set [3], > 10 µM; in data set [4], > 10 µM; in data set [5] (cAMP HRH2 Antagonist, read-out: RC50, result type IC50), > 10 µM; in data set [6] (setting [8]), > 10 µM. For the same molecule, in data set [2], the EC50 is > 10 µM. The Emax at 30 min in data set [3] came out at 0%. Moreover, the recovery at 10 μM was 13% in data set [7] (setting [9]) and 44% in data set [7] (setting [10]). The same molecule registered a Papp A→B at 10 μM in data set [7] of 3.3 ×10⁻⁶ cm/s. Besides, the Papp B→A at 10 μM in data set [7] turned out to be 0.7 ×10⁻⁶ cm/s.
